Key:
human monocytes [1] = test: rapid chemokine testing system (lateral motility / chemotaxis of cells); format: cell-based
Description: The BioAssembly Tool (BAT) has been modified for use in observations of the lateral motility of cells in experiments on chemotaxis. The described setup enables rapid screening of chemokines and cell matrices (typically, one experiment can take about half to one hour).
Three chemokines, fMLP-FITC; […], and MIP-3β, were tested with human monocytes. […] MIP-3β was found ineffective (as expected for immature monocytes); MIP-3α was found effective, despite negative information and expectations. […] Thus, fibrin matrices should be used preferably in cases when cell retention is required, and collagen should be used to make cell-permeable barriers. This latter observation may be important when considering the use of ETCs for wound healing procedures. This system can be used to further refine and optimize chemokine doses using various microparticle strategies and formulations, temporal release characteristics, and scaffold characteristics (e.g., geometry, porosity, material) on cell migration.
The rapid chemokine testing system can be used to examine saturation of cell receptors by chemokines. When a chemokine reaches its saturating concentration, cells become insensitive to the signal and stop their locomotion. In most cases, chemotaxis occurs through gradients of chemokines.

human monocytes [2] = details: known value used for comparison; cited from earlier work
[3] = tested on: human monocytes and dendritic cells; test: in vitro chemotaxis towards chemoattractant-releasing PLGA microspheres; format: cell-based; details: PLGA microspheres releasing the chemoattractant
Text: FIG. 7A is a schematic representation of the experimental design. […] FIGS. 7C and 7D show the movement of monocyte-derived DCs and monocytes, respectively, towards the vaccination site source well.
PLGA (poly(lactide-co-glycolide)) microspheres provide steady controlled release of encapsulated chemokines. […] Synthetic inverse opal hydrogel scaffolds were synthesized that support T-cell migration and interaction with B cells (FIG. 8A), and support attachment and growth of high cell densities, which is an important feature in mimicking the microenvironment of the lymph node (FIG. 8B).

monocytes = test: monocyte attraction to implanted extracellular matrix scaffold; format: in vivo; details: mouse

MIP-3α: chemokine (macrophage inflammatory protein-3) tested with human monocytes
effectiveness of the chemokine (human monocytes [1]): effective

N-formyl-methionyl-leucyl-phenylalanine-fluorescein isothiocyanate [fMLP FITC]
saturation level (human monocytes [1]): ~40 nM

CSCC[C@H](NC=O)C(=O)N[C@@H](CC(C)C)C(=O)N[C@@H](Cc1ccccc1)C(=O)O [fMLP, N-formyl-methionyl-leucyl-phenylalanine]
saturation level known (human monocytes [2]): ~30 nM
movement of cells towards releasing microspheres [3]: move towards microspheres

MIP-3β: macrophage inflammatory protein-3β, a 10 kDa chemoattractant chemokine
effectiveness of the chemokine (human monocytes [1]): ineffective
attraction of monocytes (immunohistochemical staining) (monocytes): attracted
